Assay results from PubChem BioAssay AID256 (DTP/NCI, 2004).
Inconclusive results and toxic doses are left out. How the source made its calls: active means survival T/C of 150% or more; inactive means T/C below 125% in these data.

System: CD2F1 mice, L1210 leukemia ip, survival T/C
Assay: NCI In Vivo Anticancer Drug Screen. Data for tumor model L1210 Leukemia (intraperitoneal) in CD2F1 (CDF1) mice
Conditions: higher = longer survival
Summary of the method: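 Activity against a transplanted murine tumor was judged by comparing the compound group with a vehicle group. The outcome in the treated animals was divided by that in the controls.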

[1] = endpoint: mean survival time, dose: 100.0 mg/kg/injection, schedule: Q04DX003 (ip), vehicle: saline with Tween-80
[2] = endpoint: mean survival time, dose: 200.0 mg/kg/injection, schedule: Q04DX003 (ip), vehicle: saline with Tween-80
[3] = endpoint: mean survival time, dose: 400.0 mg/kg/injection, schedule: Q04DX003 (ip), vehicle: saline with Tween-80
[4] = endpoint: mean survival time, dose: 100.0 mg/kg/injection, schedule: Q01DX009 (ip), vehicle: saline with Tween-80
[5] = endpoint: mean survival time, dose: 200.0 mg/kg/injection, schedule: Q01DX009 (ip), vehicle: saline with Tween-80
[6] = endpoint: mean survival time, dose: 400.0 mg/kg/injection, schedule: Q01DX009 (ip), vehicle: saline with Tween-80

Measured: T/C

CSc1nccc2c1ncn2C1OC(CO)C(O)C1O (configuration not stated)
inactive: endpoint: mean survival time, dose: 100.0 mg/kg/injection, schedule: Q01DX001 (ip), vehicle: saline 98 % of control | endpoint: mean survival time, dose: 200.0 mg/kg/injection, schedule: Q01DX001 (ip), vehicle: saline 104 % of control | endpoint: mean survival time, dose: 400.0 mg/kg/injection, schedule: Q01DX001 (ip), vehicle: saline 104 % of control

Nc1nc2c(c(=O)[nH]1)N(Cc1c[nH]c(=O)[nH]c1=O)C(CNc1ccc(C(=O)NC(CCC(=O)O)C(=O)O)cc1)CN2 (configuration not stated)
inactive: endpoint: mean survival time, dose: 100.0 mg/kg/injection, schedule: Q01DX001 (ip), vehicle: saline with Tween-80 101 % of control | endpoint: mean survival time, dose: 200.0 mg/kg/injection, schedule: Q01DX001 (ip), vehicle: saline with Tween-80 92 % of control | endpoint: mean survival time, dose: 400.0 mg/kg/injection, schedule: Q01DX001 (ip), vehicle: saline with Tween-80 101 % of control

CCCCc1ccc(N/C(N)=N/c2nc(C)cc(=O)[nH]2)cc1
inactive: [1] 98 % of control | [2] 98 % of control | [3] 92 % of control

COc1cccc(NC2=NCCO2)c1
inactive: [1] 96 % of control | [2] 98 % of control

ClCC(CCl)N1CCCCC1
inactive: endpoint: mean survival time, dose: 6.25 mg/kg/injection, schedule: Q01DX001 (ip), vehicle: saline 103 % of control | endpoint: mean survival time, dose: 6.25 mg/kg/injection, schedule: Q01DX009 (ip), vehicle: saline sonified 102 % of control | endpoint: mean survival time, dose: 6.25 mg/kg/injection, schedule: Q04DX003 (ip), vehicle: saline 101 % of control | endpoint: mean survival time, dose: 12.5 mg/kg/injection, schedule: Q01DX001 (ip), vehicle: saline 104 % of control | endpoint: mean survival time, dose: 12.5 mg/kg/injection, schedule: Q01DX009 (ip), vehicle: saline sonified 109 % of control | endpoint: mean survival time, dose: 12.5 mg/kg/injection, schedule: Q04DX003 (ip), vehicle: saline 104 % of control | endpoint: mean survival time, dose: 25.0 mg/kg/injection, schedule: Q01DX001 (ip), vehicle: saline 107 % of control | endpoint: mean survival time, dose: 25.0 mg/kg/injection, schedule: Q04DX003 (ip), vehicle: saline 106 % of control

O=C(c1ccc(-c2ccccc2)cc1)C1(Br)CCCCC1
inactive: [4] 102 % of control | [1] 101 % of control | [5] 96 % of control | [2] 102 % of control | [6] 97 % of control | [3] 98 % of control

COC(O)C1OC(c2ccccc2)OC2C(CO)OC(c3ccccc3)OC12 (configuration not stated)
inactive: [4] 90 % of control | [5] 90 % of control | [6] 90 % of control

O=P1(N(CCCl)CCCl)NCCC2(O1)C1CC3CC(C1)CC2C3 (configuration not stated)
inactive: endpoint: mean survival time, dose: 15.6 mg/kg/injection, schedule: Q01DX001 (ip), vehicle: distilled water + Tween-80 97 % of control | endpoint: mean survival time, dose: 31.3 mg/kg/injection, schedule: Q01DX001 (ip), vehicle: distilled water + Tween-80 96 % of control | endpoint: mean survival time, dose: 62.5 mg/kg/injection, schedule: Q01DX001 (ip), vehicle: distilled water + Tween-80 99 % of control | endpoint: mean survival time, dose: 125.0 mg/kg/injection, schedule: Q01DX001 (ip), vehicle: distilled water + Tween-80 86 % of control | endpoint: mean survival time, dose: 500.0 mg/kg/injection, schedule: Q01DX001 (ip), vehicle: distilled water + Tween-80 86 % of control

O=C(O)/C=C(/Cl)c1ccccc1
inactive: [4] 101 % of control | [5] 91 % of control | [6] 89 % of control

O=[N+]([O-])c1cc2nsnc2cc1[N+](=O)[O-]
inactive: [1] 101 % of control | [2] 95 % of control | [3] 96 % of control

O=c1cc([O-])[n+](C2OC(CO)C(O)C2O)c2sccn12 (configuration not stated)
inactive: endpoint: median survival time, dose: 10.63 mg/kg/injection, schedule: Q01DX005 (ip), vehicle: water 102 % of control | endpoint: median survival time, dose: 12.5 mg/kg/injection, schedule: Q01DX005 (ip), vehicle: saline 102 % of control | endpoint: median survival time, dose: 21.25 mg/kg/injection, schedule: Q01DX005 (ip), vehicle: water 98 % of control | endpoint: median survival time, dose: 25.0 mg/kg/injection, schedule: Q01DX005 (ip), vehicle: saline 101 % of control | endpoint: median survival time, dose: 42.5 mg/kg/injection, schedule: Q01DX005 (ip), vehicle: water 98 % of control | endpoint: median survival time, dose: 50.0 mg/kg/injection, schedule: Q01DX005 (ip), vehicle: saline 98 % of control | endpoint: median survival time, dose: 85.0 mg/kg/injection, schedule: Q01DX005 (ip), vehicle: water 102 % of control | endpoint: median survival time, dose: 100.0 mg/kg/injection, schedule: Q01DX005 (ip), vehicle: saline 97 % of control | endpoint: median survival time, dose: 170.0 mg/kg/injection, schedule: Q01DX005 (ip), vehicle: water 100 % of control | endpoint: median survival time, dose: 200.0 mg/kg/injection, schedule: Q01DX005 (ip), vehicle: saline 98 % of control

C1N2CN3CN1CN(C2)C3.[Cl][Pt]([Cl])[Cl]
inactive: endpoint: mean survival time, dose: 3.13 mg/kg/injection, schedule: Q04DX003 (ip), vehicle: distilled water + Tween-80 103 % of control | endpoint: mean survival time, dose: 6.25 mg/kg/injection, schedule: Q04DX003 (ip), vehicle: distilled water + Tween-80 108 % of control | endpoint: mean survival time, dose: 12.5 mg/kg/injection, schedule: Q04DX003 (ip), vehicle: distilled water + Tween-80 109 % of control | endpoint: mean survival time, dose: 25.0 mg/kg/injection, schedule: Q04DX003 (ip), vehicle: distilled water + Tween-80 108 % of control | endpoint: mean survival time, dose: 50.0 mg/kg/injection, schedule: Q04DX003 (ip), vehicle: distilled water + Tween-80 115 % of control

O=C(O)C1C2CCC(CC2)C1C(=O)O (configuration not stated)
inactive: endpoint: mean survival time, dose: 100.0 mg/kg/injection, schedule: Q04DX002 (ip), vehicle: saline with Tween-80 93 % of control | endpoint: mean survival time, dose: 200.0 mg/kg/injection, schedule: Q04DX002 (ip), vehicle: saline with Tween-80 97 % of control | endpoint: mean survival time, dose: 400.0 mg/kg/injection, schedule: Q04DX002 (ip), vehicle: saline with Tween-80 101 % of control
